In series [1] the test system is sciatic nerve. In words: Motor block: additives in the injection fluid with bupivacaine microspheres (Table 2). It counts as in vivo, rat. The text has this:
The rats were behaviorally tested for sensory and motor anesthesia in a quiet observation room. Testing was only performed in rats showing appropriate baseline hot plate latencies after at least-one week of testing. In all testing conditions, the experimenter recording the behavior was unaware of the side containing the local anesthetic. To assess motor anesthesia, a 4-point scale based on visual observation was devised: (1) normal appearance, (2) intact dorsiflexion of foot with an impaired ability to splay toes when elevated by the tail, (3) toes and foot remained plantar flexed with no splaying ability, and (4) loss of dorsiflexion, flexion of toes, and impairment of gait. For graphing clarity, partial motor anesthesia equals a score of 2 and dense motor anesthesia is a score of either 3 or 4.
(§1) At least five rats were used in each test.
(§2) Sensory blockade or anesthesia effect was examined using art-known techniques. In addition, motor tests were performed at each time point to examined each rat's ability to hop and to place weight on it's hind leg by art-known techniques. Each leg was tested three times, and the latency of the contralateral leg was tested to provide a control. The animals were handled and cared for according to institution, state, and federal regulations.

Series [2] has as its system sciatic nerve. Put plainly: Sensory block: additives in the injection fluid with bupivacaine microspheres (Table 2). It counts as in vivo, rat. The settings on record: for sensory blockade latency: with bupivacaine microspheres, FIG. 5A. How it is done: Sensory anesthesia was measured by the time required for each rat to withdraw its hind paw from a 56° C. plate (IITC Life Science Instruments, Model 35-D, Woodland Hills, Calif.). The rats were allowed to adjust to their surroundings in a quiet room for at least 30 minutes before testing. The rats were held with a cloth gently. wrapped above their waist to restrain the upper extremities and obstruct vision. The rats were positioned to stand with one hind paw on a hot plate and the other on a room temperature plate. With a computer data collection system to (Apple IIe with a footpad switch), latency to withdraw each hind paw to the hot plate was recorded by alternating paws and allowing at least fifteen seconds of recovery between each measurement. If no withdrawal occurred from the hot plate within 12 seconds, the trial was terminated to prevent injury and the termination time was recorded. Testing ended after five measurements per side, the high and low points were disregarded, and the mean of the remaining three points was calculated for each side. Animals were handled in accordance with institutional, state and federal guidelines.
as §1, §2

The conditions of series [3]: 0.05% in the suspending medium.
Experimental: Male Sprague-Dawley Charles River Rats, weighing between 200 and 350 grams were used to test the ability of each additive to prolong blockade or anesthesia effect. 150 mg of bupivacaine per kg of rat and a known concentration of each of the additives were placed in 0.6 mls of injection vehicle (5 g/L medium molecular weight carboxymethylcellulose, 1 g/L Tween 80). If the additive was a solid, it was dissolved in ethanol and aliquots which varied in concentrations from 0.0220 mg/kg of rat, and added to the injection fluid. If the additive was in liquid form, it was added directly to the injection fluid. The microsphere/additive mixture was vortexed (Scientific Industries Vortex Genie®) at maximum speed for three minutes prior to injection. The injection was performed while the rats were under general anesthetic, by locating the greater trochanter and injecting slightly below and proximal to it. At least five rats were used in each test.
The test system of series [4] is sciatic nerve. Put plainly: Sciatic blockade by liquid bupivacaine and/or dexamethasone in solution (Table 1). It counts as in vivo, rat. The protocol: as §1, §2
Series [5] has as its system sciatic nerve. Put plainly: Restoration of waning sensory anesthesia by dexamethasone (hot plate latency). It counts as in vivo, rat. The settings on record: 0.032 mg/kg injected at the original site 6 hours after bupivacaine microspheres.
Experimental: Sensory anesthesia was measured by the time required for each rat to withdraw its hind paw from a 56° C. plate (IITC Life Science Instruments, Model 35-D, Woodland Hills, Calif.). The rats were allowed to adjust to their surroundings in a quiet room for at least 30 minutes before testing. The rats were held with a cloth gently. wrapped above their waist to restrain the upper extremities and obstruct vision. The rats were positioned to stand with one hind paw on a hot plate and the other on a room temperature plate. With a computer data collection system to (Apple IIe with a footpad switch), latency to withdraw each hind paw to the hot plate was recorded by alternating paws and allowing at least fifteen seconds of recovery between each measurement. If no withdrawal occurred from the hot plate within 12 seconds, the trial was terminated to prevent injury and the termination time was recorded. Testing ended after five measurements per side, the high and low points were disregarded, and the mean of the remaining three points was calculated for each side. […]
Sensory latency was determined by the hot plate foot withdrawal method described above. […]
The mark [6] stands for this setting: additive 0.032 mg/Kg rat with bupivacaine microspheres.
Where [7] appears, read: additive 0.25 mg/Kg rat with bupivacaine microspheres.
Setting [8] is: additive 0.8 mg/Kg rat with bupivacaine microspheres.
The mark [9] stands for this setting: additive 2.0 mg/Kg rat with bupivacaine microspheres.
The mark [10] stands for this setting: in the suspending medium with bupivacaine microspheres.
Where [11] appears, read: additive 0.1 mg/Kg rat with bupivacaine microspheres.
The mark [12] stands for this setting: additive 3.1 mg/Kg rat with bupivacaine microspheres.
[13] abbreviates: additive 0.01 mg/Kg rat with bupivacaine microspheres.
The mark [14] stands for this setting: additive 0.125 mg/Kg rat with bupivacaine microspheres.
Setting [15] is: additive 1.25 mg/Kg rat with bupivacaine microspheres.
Where [16] appears, read: additive 10 mg/Kg rat with bupivacaine microspheres.
Where [17] appears, read: additive 6.3 mg/Kg rat with bupivacaine microspheres.
[18] abbreviates: additive 2.1 mg/Kg rat with bupivacaine microspheres.
Setting [19] is: additive 20 mg/Kg rat with bupivacaine microspheres.
The mark [20] stands for this setting: additive 1.0 mg/Kg rat with bupivacaine microspheres.
Setting [21] is: additive 1.7 mg/Kg rat with bupivacaine microspheres.
Where [22] appears, read: additive 0.02 mg/Kg rat with bupivacaine microspheres.
Setting [23] is: additive 0.14 mg/Kg rat with bupivacaine microspheres.

Entries after “also recorded” stand apart in the source; their conditions may differ.

With `C[C@H]1C[C@H]2[C@@H]3CCC4=CC(=O)C=C[C@]4(C)[C@@]3(F)[C@@H](O)C[C@]2(C)[C@@]1(O)C(=O)CO` [Betamethasone, betamethasone], the Motor block with sciatic nerve [1] (setting [6]) turned out to be 15.0 ± 4.0 h; with sciatic nerve [1] (setting [7]), 38.0 ± 11.0 h; with sciatic nerve [1] (setting [8]), 39.0 ± 5.0 h; in the series with sciatic nerve [1] (setting [9]), 39.0 ± 11.0 h. The Sensory block came out at 19.0 ± 4.0 h in the series on sciatic nerve [2] (setting [6]), 36.0 ± 10.0 h in the series on sciatic nerve [2] (setting [7]), 46.0 ± 7.0 h in the series on sciatic nerve [2] (setting [8]) and 44.0 ± 13.0 h with sciatic nerve [2] (setting [9]). Further, in the series with sciatic nerve [2] (setting [10]), the “duration of prolonged blockade or local anesthesia effect” value is “up to 45 hours”.
Consider `CC(C)CCC[C@@H](C)[C@H]1CC[C@H]2[C@@H]3CC=C4C[C@@H](O)CC[C@]4(C)[C@H]3CC[C@]12C` [Cholesterol], for which the figures for the Motor block in the series with sciatic nerve [1] (setting [11]) and with sciatic nerve [1] (setting [12]) were 4.0 ± 1.0 h and 5.0 ± 1.0 h, respectively. In the series on sciatic nerve [2] (0.3 mg/kg incorporated into bupivacaine loaded microspheres), the “prolongation of blockade compared with bupivacaine microspheres (in words)” value is on record as “did not result in a prolongation of blockade or anesthesia effect”. Moreover, the Sensory block is 4.0 ± 0.4 h in the series on sciatic nerve [2] (setting [11]) and 8.0 ± 3.0 h in the series on sciatic nerve [2] (setting [12]).
Take `CNC[C@H](O)c1ccc(O)c(O)c1` [Epinephrine]: the values for the Motor block in the series on sciatic nerve [1] (setting [13]) and in the series with sciatic nerve [1] (setting [11]) were 12.0 ± 4.0 h and 11.0 ± 3.0 h, respectively. Besides, in series [3], the “systemic toxicity (in words)” value is on record as “considerable systemic toxicity, but no deaths”. Also, the Sensory block was 12.0 ± 6.0 h with sciatic nerve [2] (setting [13]) and 14.0 ± 5.0 h in the series with sciatic nerve [2] (setting [11]). Also, the “degree of prolongation of blockade (in words)” value (“degree” for short) with sciatic nerve [2] (setting [10]) is on record as “did not substantially prolong”.
As to `C[C@]12CC[C@@H]3c4ccc(O)cc4CC[C@H]3[C@@H]1CC[C@@H]2O` [Estradiol], the Motor block was 12.0 ± 6.0 h in the series on sciatic nerve [1] (setting [14]) and 9.0 ± 2.0 h with sciatic nerve [1] (setting [15]). Besides, the Sensory block in the series with sciatic nerve [2] (setting [14]) worked out at 11.0 ± 6.0 h; in the series with sciatic nerve [2] (setting [15]) it was 8.0 ± 1.0 h. In addition, in the series with sciatic nerve [2] (setting [10]), the “degree” value is reported as “no blockade-prolonging effect”.
Consider `C[C@]12CCC(=O)C=C1CC[C@@H]1[C@@H]2[C@@H](O)C[C@@]2(C)[C@H]1CC[C@]2(O)C(=O)CO` [Hydrocortisone, hydrocortisone], for which the Motor block in the series with sciatic nerve [1] (setting [11]) was found to be 10.0 ± 3.0 h; in the series on sciatic nerve [1] (setting [15]), 16.0 ± 3.0 h; in the series with sciatic nerve [1] (setting [16]), 31.0 ± 8.0 h. Also, the Sensory block stood at 10.0 ± 3.0 h in the series with sciatic nerve [2] (setting [11]), 15.0 ± 5.0 h in the series on sciatic nerve [2] (setting [15]) and 36.0 ± 10.0 h with sciatic nerve [2] (setting [16]). For the same compound, the “degree” value with sciatic nerve [2] (setting [10]) is “mild, but statistically significant prolongation; also recorded: cannot be made as effective as dexamethasone”.
Regarding `O=C(c1ccccc1)c1ccc2n1CCC2C(=O)O` (stereo not shown) [Ketoralac], the Motor block with sciatic nerve [1] (setting [9]) was determined as 7.0 ± 0.4 h; with sciatic nerve [1] (setting [17]), 10.0 ± 4.0 h. Further, the Sensory block is 6.0 ± 0.7 h in the series on sciatic nerve [2] (setting [9]) and 8.0 ± 2.0 h in the series with sciatic nerve [2] (setting [17]).
As to `C[C@H]1C[C@@H]2[C@H]([C@@H](O)C[C@@]3(C)[C@H]2CC[C@]3(O)C(=O)CO)[C@@]2(C)C=CC(=O)C=C12` [Methylprednisolone, methylprednisolone], the Motor block was 13.0 ± 4.0 h with sciatic nerve [1] (setting [11]), 28.0 ± 5.0 h in the series with sciatic nerve [1] (setting [18]) and 33.0 ± 9.0 h in the series with sciatic nerve [1] (setting [19]). Moreover, the Sensory block in the series on sciatic nerve [2] (setting [11]) turned out to be 20.0 ± 5.0 h; in the series with sciatic nerve [2] (setting [18]) it was 28.0 ± 6.0 h; in the series on sciatic nerve [2] (setting [19]), 34.0 ± 11.0 h.
The compound `CC(=O)[C@H]1CC[C@H]2[C@@H]3CCC4=CC(=O)CC[C@]4(C)[C@H]3CC[C@]12C` [Progesterone] had a Motor block in the series on sciatic nerve [1] (setting [9]) of 6.0 ± 1.0 h. The same compound came in with a Sensory block with sciatic nerve [2] (setting [9]) of 8.0 ± 1.0 h.
For the compound `C[C@]12CC[C@H]3[C@@H](CCC4=CC(=O)CC[C@@]43C)[C@@H]1CC[C@@H]2O` [Testosterone], the Motor block was found to be 6.0 ± 1.0 h in the series on sciatic nerve [1] (setting [20]) and 15.0 ± 5.0 h in the series with sciatic nerve [1] (setting [21]). Also, the Sensory block in the series with sciatic nerve [2] (setting [20]) stood at 7.0 ± 2.0 h; with sciatic nerve [2] (setting [21]) it was 15.0 ± 5.0 h. Also, the “degree” value in the series with sciatic nerve [2] (setting [10]) was “mild prolongation”.
Turning to `CCCCN1CCCCC1C(=O)Nc1c(C)cccc1C` (stereo not shown) [bupivacaine], the “LENGTH OF Blockade or anesthesia effect” value with sciatic nerve [4] (bupivacaine 3 mg/kg rat, no dexamethasone) fell in the range of 2 to 3 h. The “effect on duration of blockade obtained using bupivacaine microspheres (in words)” value in the series on sciatic nerve [2] (addition of 0.005% (w/w) to the suspending medium) was “did not result in a prolongation”.
For the compound `C[C@@H]1C[C@H]2[C@@H]3CCC4=CC(=O)C=C[C@]4(C)[C@@]3(F)[C@@H](O)C[C@]2(C)[C@@]1(O)C(=O)CO` [dexamethasone], the Motor block in the series with sciatic nerve [1] (setting [22]) is 19.0 ± 8.0 h; in the series on sciatic nerve [1] (setting [23]), 38.0 ± 5.0 h; with sciatic nerve [1] (setting [9]), 34.0 ± 12.0 h. The “hot plate sensory latency after restoration” value in the series with sciatic nerve [5] is given as “about 11 sec”. Besides, the “LENGTH OF Blockade or anesthesia effect” value in the series on sciatic nerve [4] (bupivacaine 3 mg/kg rat plus dexamethasone 0.16 mg/kg rat) was 2 to 3 h; with sciatic nerve [4] (bupivacaine 3 mg/kg rat plus dexamethasone 1.6 mg/kg rat), 2 to 3 h; with sciatic nerve [4] (dexamethasone 0.16 mg/kg rat, no bupivacaine), 0 h. Besides, the values for the Sensory block with sciatic nerve [2] (setting [22]), in the series with sciatic nerve [2] (setting [23]) and in the series with sciatic nerve [2] (setting [9]) were 17.0 ± 11.0 h, 47.0 ± 8.0 h and 36.0 ± 19.0 h, respectively. In addition, the sensory blockade latency entry in the series with sciatic nerve [2] (after 50 hours) is “about 7 seconds”; in the series on sciatic nerve [2] (after 100 hours), “about 2.5 seconds”; with sciatic nerve [2] (initial), 12 s.

Values taken from patent publication US6426339B1, “Formulations and methods for providing prolonged local anesthesia” (Children's Medical Center Corporation, priority 1996, dated 2002).
